“And” between values parts separate entries of the source, which are not always exact repeats. Identical values can stand only once. “Also recorded” adds a separate entry of the source.
What was measured:
Format in all cases: in vivo
[1] = system: LPS pretreated mice; test: Radiant tail flick antinociception, LPS pretreated mice
Protocol: Compounds were dissolved in 10% DMSO and then diluted to less than 1% DMSO in the test solutions. […] Compounds were administered in a 5-μl volume in conscious mice, either i.c.v. (Haley T J & McCormick W G, Br J Pharmacol Chemother, 1957, 12(1), 12-15) or i.t. (Hylden J L K & Wilcox G L, Eur. J. Pharmacol., 1980, 67(2-3), 313-316). Peak times were determined by comparing the percent maximal possible effect (% MPE) at 5, 10, 20 and 60 minutes after injection.
The first group mice were pretreated with lipopolysaccaride (LPS, 1 mg/kg, i.p. from Escherichia coli 0111:B4; Sigma-Aldrich, St. Louis, Mo.) for 24 hours before testing for antinociception of compounds 2-6 (Seo Y-J, et al., Pharmacol., Biochem. Behav., 2008, 91, 121-127). This group was compared to a group without pretreatment.
The tail flick assay is used first to test for antinociception as described by D'Amour and Smith (D'AMOUR FE & SMITH DL (1941) J. Pharmacol. Exp. Ther. 72(1):74-79) and modified by Dewey et al. (Dewey W L, Harris L S, Howes J F, & Nuite JA (1970) J. Pharmacol. Exp. Ther. 175(2):435-442). For the measurement of the tail-flick latency, mice are wrapped in a light cloth and held gently in one hand with the tail positioned in the apparatus (Tail Flick Analgesia Meter, Columbus Instruments, Columbus, Ohio) for radiant heat stimulus. The tail-flick response is elicited by applying radiant heat to the dorsal side of the tail. The intensity of the heat is set so that the mouse flicks its tail within 2 to 3 seconds. The test latency is measured before drug treatment (control) and again after the drug treatment (test) at the peak time of the compound; a 10 second maximum cut-off time is used to prevent damage to the tail. Antinociception is quantified according to the Harris L S & Pierson A K, J. Pharmacol. Exp. Ther., 1964, 143(2):141-148, as the percent maximal possible effect (% MPE), which is calculated as: % MPE=(Test−Control/10−Control)×100.
At least three groups of four to ten mice are used for each dose response curve. ED50 values with 95% confidence intervals (C.I.) are computed with GraphPad Prism 4 by using nonlinear regression methods.

[2] = system: control mice; test: Acute (24 hour) tolerance, tail flick, control mice; conditions: controls
Protocol: (§1) Acute tolerance utilizing the radiant tail flick assay was measured by comparing the ED80-90 dose on day 1 to the same dose measured 24 hours later on the same mouse. For the LPS pretreated mice, no additional LPS was given to the mice for the acute tolerance test. […] However, the effect was less robust 72 hours after the initial LPS injection. Thus confirming that the acute tolerance test was accurate for the LPS pretreated mice.

[3] = system: LPS pretreated mice; test: Acute (24 hour) tolerance, tail flick, LPS pretreated mice; conditions: for Tolerance: 24 hours
Protocol: as §1

[4] = system: live mice; test: Respiratory depression (Mouse Ox O2 saturation); conditions: for % of mice with O2 Saturation less than 90%: i.t., LPS
Protocol: Respiratory depression was measured in live mice using the Mouse Ox (small animal Oximeter from STARR Life Sciences Corp, Oakmont, Pa.). CollarClip™—(Un-Anesthetized Neck Sensor) for mice was used as the site for measuring the data. Day one of each experiment involved training the animals using a disposable CollarClip™. The collar was left on for approximately one hour. […] Mice were monitored for a 60-minute period, with measurements 10-20-30 and 60 minutes.
Respiratory depression was measured in live mice using the Mouse Ox (small animal Oximeter from STARR Life Sciences Corp, Oakmont, Pa.). CollarClip™ (Un-Anesthetized Neck Sensor) for mice was used as the site for measuring the data.
Day one of each experiment involved training the animals using a disposable CollarClip™. The collar was left on for approximately one hour.
Mice were monitored for a 60-minute period, with measurements 10-20-30 and 60 minutes.

[5] = system: mice; test: Rota-Rod motor performance, CFA injected mice; conditions: i.t., after the 48 hour measurement post CFA
Protocol: To first evaluate the effects of CFA injection on motor coordination, a group of 10 animals were tested on the Rotamex (Columbus Instruments Rotamex 4/8 instrument) for performance. Animals were trained three days prior to undergoing 3-5 minute trials on an accelerating rotating rod (0-20 RPMs). Motor performance was evaluated at 2, 4, 6, 24 and 48 hours post injection. Compound 4c was then injected i.t. and the motor performance was evaluated at 5 and 20 minutes. The time to the first fall were recorded and compared with controls (Kovacs K J, et al., Pain, 2008, 136, 75-84). The results for compound 4c are illustrated in FIG. 10.

Cc1cccc(C#Cc2cccc(OCCNC(=O)COCC(=O)NCCCCCNC(=O)COCC(=O)N[C@H]3CC[C@@]4(O)C5Cc6ccc(O)c7c6[C@@]4(CCN5C)[C@H]3O7)c2)n1 [Compound 4c, N-((4aS,7S,7aR,12bS)-4a,9-dihydroxy-3-methyl-2,3,4,4a,5,6,7,7a-octahydro-1H-4,12-methanobenzofuro[3,2-e]isoquinolin-7-yl)-2-((1-(3-((6-methylpyridin-2-yl)ethynyl)phenoxy)-4,8,16-trioxo-6-oxa-3,9,15-triazaheptadecan-17-yl)oxy)acetamide]
ED50 (CI) i.c.v. ([1]; LPS pretreated (1 mg/kg 24 hours i.p.), i.c.v.): 374.9 pmol/mouse
ED50 (CI) i.t. ([1]; LPS pretreated (1 mg/kg 24 hours i.p.), i.t.): < 9 fmol/mouse and 9 fmol/mouse and 8.83 fmol/mouse
antinociception ([1]; LPS pretreated, tail flick, dose of the acute tolerance test): 97%
Tolerance ([2]; i.c.v.): No Tolerance
Tolerance ([2]; i.t.): No Tolerance
% MPE remaining in 24 hour tolerance test ([3]; i.c.v., 24 hour): Still was 40% MPE
Tolerance ([3]; i.c.v.): 24 hour tolerance
Tolerance ([3]; i.t.): without tolerance; also recorded: No Tolerance
safety margin ([4]; compared with morphine): greater safety margin than morphine
therapeutic index ([4]; estimated): greater than a million
% of mice with O2 Saturation less than 90% ([4]; dose 50,000 times the ED90): 0%
% of mice with O2 Saturation less than 90% ([4]; dose 100,000 times the ED90): 100%
respiratory depression ([4]; mouse, in vivo): no tolerance or respiratory depression
time on the Rotamex (time to first fall) [5]: stayed on the Rotomex for a longer period of time

Source: patent US9981043B2, “Analgesic conjugates” (priority 2013, dated 2018)
